{
  "source": "paper PMC11446596",
  "about": "(Critical Care Explorations, 2024)",
  "key": {"[1]": {"parameters": "species or system human", "settings": "for Trough Vancomycin Concentration achieving AUC24/MIC = 400: regression equation"}, "[2]": {"settings": "critically ill children; cited from earlier work"}, "[3]": {"settings": "median / average of model-predicted half-life; PICU children"}, "[4]": {"settings": "AUC24 regression equation, 365 troughs, 238 subjects"}},
  "note": "Like-named read-outs stand apart in the source and are kept apart here.",
  "data": [
    {"smiles": "CN[C@H](CC(C)C)C(=O)N[C@H]1C(=O)N[C@@H](CC(N)=O)C(=O)N[C@H]2C(=O)N[C@H]3C(=O)N[C@H](C(=O)N[C@H](C(=O)O)c4cc(O)cc(O)c4-c4cc3ccc4O)[C@H](O)c3ccc(c(Cl)c3)Oc3cc2cc(c3O[C@@H]2O[C@H](CO)[C@@H](O)[C@H](O)[C@H]2O[C@H]2C[C@](C)(N)[C@H](O)[C@H](C)O2)Oc2ccc(cc2Cl)[C@H]1O", "note": "[vancomycin]", "values": [
      {"measurement": "Trough Vancomycin Concentration achieving AUC24/MIC = 400", "setting": "[1]; 15 mg/kg q6h, body weight 10 kg, MIC = 0.5 μg/mL", "value": 1.8, "unit": "µg/mL"},
      {"measurement": "Trough Vancomycin Concentration achieving AUC24/MIC = 400", "setting": "[1]; 15 mg/kg q6h, body weight 10 kg, MIC = 1 μg/mL", "value": 7.4, "unit": "µg/mL"},
      {"measurement": "Trough Vancomycin Concentration achieving AUC24/MIC = 400", "setting": "[1]; 15 mg/kg q6h, body weight 10 kg, MIC = 2 μg/mL", "value": 29.9, "unit": "µg/mL"},
      {"measurement": "Trough Vancomycin Concentration achieving AUC24/MIC = 400", "setting": "[1]; 15 mg/kg q6h, body weight 20 kg, MIC = 0.5 μg/mL", "value": 1.7, "unit": "µg/mL"},
      {"measurement": "Trough Vancomycin Concentration achieving AUC24/MIC = 400", "setting": "[1]; 15 mg/kg q6h, body weight 20 kg, MIC = 1 μg/mL", "value": 6.9, "unit": "µg/mL"},
      {"measurement": "Trough Vancomycin Concentration achieving AUC24/MIC = 400", "setting": "[1]; 15 mg/kg q6h, body weight 20 kg, MIC = 2 μg/mL", "value": 28.0, "unit": "µg/mL"},
      {"measurement": "Trough Vancomycin Concentration achieving AUC24/MIC = 400", "setting": "[1]; 15 mg/kg q6h, body weight 40 kg, MIC = 0.5 μg/mL", "value": 1.5, "unit": "µg/mL"},
      {"measurement": "Trough Vancomycin Concentration achieving AUC24/MIC = 400", "setting": "[1]; 15 mg/kg q6h, body weight 40 kg, MIC = 1 μg/mL", "value": 6.1, "unit": "µg/mL"},
      {"measurement": "Trough Vancomycin Concentration achieving AUC24/MIC = 400", "setting": "[1]; 15 mg/kg q6h, body weight 40 kg, MIC = 2 μg/mL", "value": 24.6, "unit": "µg/mL"},
      {"measurement": "Trough Vancomycin Concentration achieving AUC24/MIC = 400", "setting": "[1]; 15 mg/kg q8h, body weight 10 kg, MIC = 0.5 μg/mL", "value": 2.5, "unit": "µg/mL"},
      {"measurement": "Trough Vancomycin Concentration achieving AUC24/MIC = 400", "setting": "[1]; 15 mg/kg q8h, body weight 10 kg, MIC = 1 μg/mL", "value": 10.0, "unit": "µg/mL"},
      {"measurement": "Trough Vancomycin Concentration achieving AUC24/MIC = 400", "setting": "[1]; 15 mg/kg q8h, body weight 10 kg, MIC = 2 μg/mL", "value": 40.7, "unit": "µg/mL"},
      {"measurement": "Trough Vancomycin Concentration achieving AUC24/MIC = 400", "setting": "[1]; 15 mg/kg q8h, body weight 20 kg, MIC = 0.5 μg/mL", "value": 2.3, "unit": "µg/mL"},
      {"measurement": "Trough Vancomycin Concentration achieving AUC24/MIC = 400", "setting": "[1]; 15 mg/kg q8h, body weight 20 kg, MIC = 1 μg/mL", "value": 9.3, "unit": "µg/mL"},
      {"measurement": "Trough Vancomycin Concentration achieving AUC24/MIC = 400", "setting": "[1]; 15 mg/kg q8h, body weight 20 kg, MIC = 2 μg/mL", "value": 37.6, "unit": "µg/mL"},
      {"measurement": "Trough Vancomycin Concentration achieving AUC24/MIC = 400", "setting": "[1]; 15 mg/kg q8h, body weight 40 kg, MIC = 0.5 μg/mL", "value": 2.0, "unit": "µg/mL"},
      {"measurement": "Trough Vancomycin Concentration achieving AUC24/MIC = 400", "setting": "[1]; 15 mg/kg q8h, body weight 40 kg, MIC = 1 μg/mL", "value": 8.0, "unit": "µg/mL"},
      {"measurement": "Trough Vancomycin Concentration achieving AUC24/MIC = 400", "setting": "[1]; 15 mg/kg q8h, body weight 40 kg, MIC = 2 μg/mL", "value": 32.4, "unit": "µg/mL"},
      {"measurement": "Trough Vancomycin Concentration achieving AUC24/MIC = 400", "setting": "[1]; 20 mg/kg q6h, body weight 10 kg, MIC = 0.5 μg/mL", "value": 1.8, "unit": "µg/mL"},
      {"measurement": "Trough Vancomycin Concentration achieving AUC24/MIC = 400", "setting": "[1]; 20 mg/kg q6h, body weight 10 kg, MIC = 1 μg/mL", "value": 7.2, "unit": "µg/mL"},
      {"measurement": "Trough Vancomycin Concentration achieving AUC24/MIC = 400", "setting": "[1]; 20 mg/kg q6h, body weight 10 kg, MIC = 2 μg/mL", "value": 29.3, "unit": "µg/mL"},
      {"measurement": "Trough Vancomycin Concentration achieving AUC24/MIC = 400", "setting": "[1]; 20 mg/kg q6h, body weight 20 kg, MIC = 0.5 μg/mL", "value": 1.6, "unit": "µg/mL"},
      {"measurement": "Trough Vancomycin Concentration achieving AUC24/MIC = 400", "setting": "[1]; 20 mg/kg q6h, body weight 20 kg, MIC = 1 μg/mL", "value": 6.6, "unit": "µg/mL"},
      {"measurement": "Trough Vancomycin Concentration achieving AUC24/MIC = 400", "setting": "[1]; 20 mg/kg q6h, body weight 20 kg, MIC = 2 μg/mL", "value": 26.8, "unit": "µg/mL"},
      {"measurement": "Trough Vancomycin Concentration achieving AUC24/MIC = 400", "setting": "[1]; 20 mg/kg q6h, body weight 40 kg, MIC = 0.5 μg/mL", "value": 1.4, "unit": "µg/mL"},
      {"measurement": "Trough Vancomycin Concentration achieving AUC24/MIC = 400", "setting": "[1]; 20 mg/kg q6h, body weight 40 kg, MIC = 1 μg/mL", "value": 5.6, "unit": "µg/mL"},
      {"measurement": "Trough Vancomycin Concentration achieving AUC24/MIC = 400", "setting": "[1]; 20 mg/kg q6h, body weight 40 kg, MIC = 2 μg/mL", "value": 22.6, "unit": "µg/mL"},
      {"measurement": "Trough Vancomycin Concentration achieving AUC24/MIC = 400", "setting": "[1]; 30 mg/kg q8h, body weight 10 kg, MIC = 0.5 μg/mL", "value": 2.3, "unit": "µg/mL"},
      {"measurement": "Trough Vancomycin Concentration achieving AUC24/MIC = 400", "setting": "[1]; 30 mg/kg q8h, body weight 10 kg, MIC = 1 μg/mL", "value": 9.3, "unit": "µg/mL"},
      {"measurement": "Trough Vancomycin Concentration achieving AUC24/MIC = 400", "setting": "[1]; 30 mg/kg q8h, body weight 10 kg, MIC = 2 μg/mL", "value": 37.6, "unit": "µg/mL"},
      {"measurement": "Trough Vancomycin Concentration achieving AUC24/MIC = 400", "setting": "[1]; 30 mg/kg q8h, body weight 20 kg, MIC = 0.5 μg/mL", "value": 2.0, "unit": "µg/mL"},
      {"measurement": "Trough Vancomycin Concentration achieving AUC24/MIC = 400", "setting": "[1]; 30 mg/kg q8h, body weight 20 kg, MIC = 1 μg/mL", "value": 8.0, "unit": "µg/mL"},
      {"measurement": "Trough Vancomycin Concentration achieving AUC24/MIC = 400", "setting": "[1]; 30 mg/kg q8h, body weight 20 kg, MIC = 2 μg/mL", "value": 32.4, "unit": "µg/mL"},
      {"measurement": "Trough Vancomycin Concentration achieving AUC24/MIC = 400", "setting": "[1]; 30 mg/kg q8h, body weight 40 kg, MIC = 0.5 μg/mL", "value": 1.5, "unit": "µg/mL"},
      {"measurement": "Trough Vancomycin Concentration achieving AUC24/MIC = 400", "setting": "[1]; 30 mg/kg q8h, body weight 40 kg, MIC = 1 μg/mL", "value": 6.1, "unit": "µg/mL"},
      {"measurement": "Trough Vancomycin Concentration achieving AUC24/MIC = 400", "setting": "[1]; 30 mg/kg q8h, body weight 40 kg, MIC = 2 μg/mL", "value": 24.7, "unit": "µg/mL"},
      {"measurement": "Exponent of trough concentration", "setting": "[1]; AUC24 regression equation, (Ctr/7)^x, 365 troughs, 238 subjects", "value": 0.495},
      {"measurement": "Additive shift for dose frequency < 8 hours", "setting": "[1]; [4]", "value": 54.9},
      {"measurement": "Slope of (DOSE [mg] - 500)", "setting": "[1]; [4]", "value": 0.0894},
      {"measurement": "Vc reported by Downes et al", "setting": "[2]", "value": 2.59, "unit": "L"},
      {"measurement": "Vp reported by Downes et al", "setting": "[2]", "value": 5.74, "unit": "L"},
      {"measurement": "half-life (model-predicted, terminal)", "setting": "[3]", "value": 6, "unit": "h"}
    ]}
  ]
}
